Measured values reported in article PMC7334075 (Molecular carcinogenesis, 2020).

Target: KRAS-G12V (Homo sapiens, UniProt P01116, G12V)
Assay: DSF
Format: binding

With C=C(C)[C@@H]1CC[C@]2(C)CC[C@]3(C)[C@H](CC[C@@H]4[C@@]5(C)CC[C@H](O)C(C)(C)[C@@H]5CC[C@]43C)[C@@H]12 [Lupeol, Lup-20(29)-en-3b-ol] the “DSF (SYPRO Orange) with GDP-loaded protein; no Kd” value was “(loaded with GDP) suggesting binding of Lupeol to both wt-KRAS and KRAS-^G12V protein”.
